Reference: US12396458B2, “Fused ring substituted aromatic compound and preparation method therefor, herbicidal composition, and use thereof” (Qingdao Kingagroot Chemical Compound Co., Ltd., priority 2020, dated 2025)

Experiments:
Experiment in all cases: Weeding effect in post-emergence stage (greenhouse pot test)
Format in all cases: in vivo
Eleusine indica = settings: dose 7.5 g a.i./ha, fresh weight control rate
Outline: (§1)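 Greenhouse pot plants sprayed at 2-3 leaf stage (2 weeks after sowing) with compound in acetone/Tween 80 plus 1.5 L/ha methyl oleate EC, at 500, 250, 125, 60, 15, 7.5 g a.i./ha. Fresh-weight growth control scored 3 weeks later on a 0-5 scale (level 5 >85%, level 0 <5%); three replicates averaged.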

Setaria viridis = settings: dose 7.5 g a.i./ha, fresh weight control rate
Outline: as §1

Digitaria sanguinalis = settings: dose 7.5 g a.i./ha, fresh weight control rate
Outline: as §1

Rorippa indica = settings: dose 7.5 g a.i./ha, fresh weight control rate
Outline: as §1

Capsella bursa-pastoris = settings: 3 weeks after application, fresh weight control rate
Outline: as §1

Conyza japonica = settings: fresh weight control rate
Outline: as §1

Beckmannia syzigachne = settings: 3 weeks after application, fresh weight control rate
Outline: as §1

Alopecurus japonicus = settings: 3 weeks after application, fresh weight control rate
Outline: as §1

[1] = post-emergence control test, dose 7.5 g a.i./ha
[2] = post-emergence, dose 15 g a.i./ha, 3 weeks after application
[3] = post-emergence, dose 125 g a.i./ha, 3 weeks after application

Structure (SMILES)	Activity level (growth control rate), Eleusine indica (Eleusine indica)	Activity level (growth control rate), Setaria viridis (Setaria viridis)	Activity level (growth control rate), Digitaria sanguinalis (Digitaria sanguinalis)	Activity level (growth control rate), Rorippa indica (Rorippa indica)	Activity level (growth control rate), Capsella bursa-pastoris (Capsella bursa-pastoris; dose 15 g a.i./ha)	Activity level (growth control rate), Conyza japonica (Conyza japonica; [1])	Activity level (growth control rate), Conyza japonica (Conyza japonica; [2])	Activity level (growth control rate), Beckmannia syzigachne (Beckmannia syzigachne; dose 15 g a.i./ha)	Activity level (growth control rate), Alopecurus japonicus (Alopecurus japonicus; dose 15 g a.i./ha)	Activity level (growth control rate), Capsella bursa-pastoris (Capsella bursa-pastoris; dose 125 g a.i./ha)	Activity level (growth control rate), Conyza japonica (Conyza japonica; [3])	Activity level (growth control rate), Beckmannia syzigachne (Beckmannia syzigachne; dose 125 g a.i./ha)	Activity level (growth control rate), Alopecurus japonicus (Alopecurus japonicus; dose 125 g a.i./ha)
CCOC(=O)C12CCCC1C(c1cc(-n3c(=O)n(C)c(=S)n(C)c3=O)c(F)cc1Cl)=NO2 (centres unmarked) [Compound 3]	4 (Level 4: growth control rate is greater than or equal to 60% and less than 85%)	4 (Level 4: growth control rate is greater than or equal to 60% and less than 85%)	4 (Level 4: growth control rate is greater than or equal to 60% and less than 85%)	5 (Level 5: growth control rate is above 85%)	5 (Level 5: growth control rate is above 85%)	3 (Level 3: growth control rate is greater than or equal to 40% and less than 60%)	4 (Level 4: growth control rate is greater than or equal to 60% and less than 85%)	5 (Level 5: growth control rate is above 85%)	5 (Level 5: growth control rate is above 85%)				
COC(=O)C12CCCC1C(c1cc(-n3c(=O)cc(C(F)(F)F)n(C)c3=O)c(F)cc1Cl)=NO2 (centres unmarked) [Compound 209]	5 (Level 5: growth control rate is above 85%)	5 (Level 5: growth control rate is above 85%)	5 (Level 5: growth control rate is above 85%)	5 (Level 5: growth control rate is above 85%)	5 (Level 5: growth control rate is above 85%)	4 (Level 4: growth control rate is greater than or equal to 60% and less than 85%)	5 (Level 5: growth control rate is above 85%)	5 (Level 5: growth control rate is above 85%)	5 (Level 5: growth control rate is above 85%)				
CCOC(=O)C12ON=C(c3cc(-n4c(=O)cc(C(F)(F)F)n(C)c4=O)c(F)cc3Cl)C1CCC2CC (centres unmarked) [Compound 477]					5 (Level 5: growth control rate is above 85%)		4 (Level 4: growth control rate is greater than or equal to 60% and less than 85%)	4 (Level 4: growth control rate is greater than or equal to 60% and less than 85%)	5 (Level 5: growth control rate is above 85%)				
COC(=O)C12CCCC1C(c1cc(-n3c(=S)cc(C(F)(F)F)n(C)c3=O)c(F)cc1Cl)=NO2 (centres unmarked) [Compound 498]					5 (Level 5: growth control rate is above 85%)		4 (Level 4: growth control rate is greater than or equal to 60% and less than 85%)	5 (Level 5: growth control rate is above 85%)	5 (Level 5: growth control rate is above 85%)				
COC(=O)C12CCCC1C(c1nc(-n3c(=O)cc(C(F)(F)F)n(C)c3=O)c(F)cc1Cl)=NO2 (centres unmarked) [Compound 521]					5 (Level 5: growth control rate is above 85%)		4 (Level 4: growth control rate is greater than or equal to 60% and less than 85%)	5 (Level 5: growth control rate is above 85%)	5 (Level 5: growth control rate is above 85%)				
CCOC(=O)CCC12CCCC1C(c1cc(-n3c(=O)n(C)c(=S)n(C)c3=O)c(F)cc1Cl)=NO2 (centres unmarked) [Compound 530]										5 (Level 5: growth control rate is above 85%)	4 (Level 4: growth control rate is greater than or equal to 60% and less than 85%)	4 (Level 4: growth control rate is greater than or equal to 60% and less than 85%)	5 (Level 5: growth control rate is above 85%)
CCOC(=O)CCC12CCCC1C(c1cc(-n3c(=O)cc(C(F)(F)F)n(C)c3=O)c(F)cc1Cl)=NO2 (centres unmarked) [Compound 533]										5 (Level 5: growth control rate is above 85%)	5 (Level 5: growth control rate is above 85%)	5 (Level 5: growth control rate is above 85%)	5 (Level 5: growth control rate is above 85%)
COC(=O)C12CCCC1C(c1cc(N3C(=O)C4=C(CCCC4)C3=O)c(F)cc1Cl)=NO2 (centres unmarked) [Compound 542]					4 (Level 4: growth control rate is greater than or equal to 60% and less than 85%)		4 (Level 4: growth control rate is greater than or equal to 60% and less than 85%)	4 (Level 4: growth control rate is greater than or equal to 60% and less than 85%)	5 (Level 5: growth control rate is above 85%)				
COC(=O)C12CCCC1C(c1cc(-c3ncc(C(F)(F)F)cc3Cl)c(F)cc1Cl)=NO2 (centres unmarked) [Compound 585]					5 (Level 5: growth control rate is above 85%)		4 (Level 4: growth control rate is greater than or equal to 60% and less than 85%)	5 (Level 5: growth control rate is above 85%)	5 (Level 5: growth control rate is above 85%)				
CCOC(=O)C1(C)CC(c2cc(-n3c(=O)n(C)c(=S)n(C)c3=O)c(F)cc2Cl)=NO1 (centres unmarked) [Control compound A, reference compound]	3 (Level 3: growth control rate is greater than or equal to 40% and less than 60%)	2 (Level 2: growth control rate is greater than or equal to 20% and less than 40%)	2 (Level 2: growth control rate is greater than or equal to 20% and less than 40%)	2 (Level 2: growth control rate is greater than or equal to 20% and less than 40%)		2 (Level 2: growth control rate is greater than or equal to 20% and less than 40%)							
CCOC(=O)C1(C)CC(c2cc(-n3c(=O)cc(C(F)(F)F)n(C)c3=O)c(F)cc2Cl)=NO1 (centres unmarked) [Control compound B, reference compound]	3 (Level 3: growth control rate is greater than or equal to 40% and less than 60%)	3 (Level 3: growth control rate is greater than or equal to 40% and less than 60%)	2 (Level 2: growth control rate is greater than or equal to 20% and less than 40%)	2 (Level 2: growth control rate is greater than or equal to 20% and less than 40%)		2 (Level 2: growth control rate is greater than or equal to 20% and less than 40%)							
